The results in this text go back to patent US20110274661A1, “Attentuated Herpesvirus Encoding a Mek Pathway Polypeptide” (The University of Chicago, priority 2008, published 2011).

For assay [1], the system named is HT1080 cells infected with R3616. Briefly: Immunoblot of viral proteins and phosphorylated PKR in R3616-infected HT1080 cells treated with PD98059. The assay is classed as cell-based, human. As to the method: Immunoblotting—Experiments to analyze the accumulation of viral proteins and phosphorylation of ERK, PKR and eIF-2α were performed on whole-cell lysates harvested on ice at either 12 or 14 hours post-infection with lysis buffer, sonicated for 10 seconds, and clarified by centrifugation. Total protein from the supernatant was quantified by the Bradford method and 20 μg of equilibrated protein was subjected to electrophoresis in 12% or 7.5% (vol/vol) denaturing polyacrylamide gels, transferred to PVDF membranes (Millipore Corporation), blocked, and reacted with primary antibody followed by appropriate secondary antibody.
(§1) Inhibitor studies—For experiments employing the known MEK inhibitor, PD98059, HT1080 cells were starved over night in serum-free medium and then exposed to 40 μM of PD98059 (EMD Biosciences, San Diego, Calif.), or DMSO (1:1000 dilution) 6 hours prior to, and during, infection. At 12 hours post-infection, whole cell lysates were created as described above for immunoblotting.
To determine if MEK mediates the observed mutant Ras-dependent suppression of PKR activation and resultant accumulation of viral proteins in HT1080 cells infected with mutant virus R3616, the relative expressions of representative α (ICP27), β (UL42) and γ2(glycoprotein C) viral proteins in cells treated with a specific chemical inhibitor of MEK-1 (PD98059) were compared. Replicate cultures of HT1080 cells were serum-starved overnight prior to exposure to equal volumes of DMSO or PD98059 (40 μM) for 6 hours prior to infection with R3616 mutant virus (10 PFU/cell). DMSO or drug treatment was then continued until the cells were harvested at 12 hours post-infection. The cells were then lysed and the lysates were subjected to electrophoresis in denaturing polyacrylamide gels, followed by transferring to PVDF membranes and reacting with antibody to ICP27, UL42, or gC. […] To test whether the decrease in the accumulation of gC correlated with activation of PKR, the electrophoretically separated lysates were also probed with antibody to the auto-phosphorylated form of PKR (P-Thr446).

The test system of assay [2] is HT1080 cells. Briefly: R3616 viral yield in HT1080 cells with MEK inhibitor PD98059 or DMSO. The assay is classed as cell-based, human. As to conditions: R3616 1 PFU/cell. Here is the method:
as §1
Finally, to determine if MEK inhibition affects viral replication, DMSO or PD98059 (40 μM) was added to replicate cultures of HT1080 cells 6 hours prior to, and during, infection with R3616 (1 PFU/cell). The cells were harvested at 36 hours post-infection and viral yields were measured by plaque assays on Vero cell monolayers.

The mark [3] stands for this setting: PD98059 40 μM, R3616 10 PFU/cell, 12 hours post-infection.

In the case of `COc1cccc(-c2cc(=O)c3ccccc3o2)c1N` [PD98059], the “amount of activated PKR (P-Thr446)” value in assay [1] (PD98059 40 μM prior to and during infection with R3616) is “increased the amount of activated PKR”. In assay [1] (setting [3]), the “accumulation of ICP27 and UL42 proteins” value is “slight effect”; the “amounts of gC that accumulated” value is recorded as “very dramatic decrease”. For the same compound, in assay [2] (PD98059 40 μM 6 hours prior to and during infection, 36 hours post-infection), the “yield of R3616 mutant virus in the presence of PD98059” value is 1.67×10^5 PFU/ml. Besides, the “fold lower yield of R3616 with PD98059 than with DMSO” value in assay [2] (PD98059 40 μM, 36 hours) is “approximately 15 fold”.
